Experiments:
human CB1 [1] = target: T1, human CB1 (Homo sapiens, UniProt P21554); test: competitive radioligand binding assay, displacement of [3H]CP55,940, HEK cell membranes; design: expressed in transfected cells; host or cells: HEK293 cells, P2 membrane preparation; settings: [3H]CP55,940 1 nM
human CB1 [2] = target: T1, human CB1; test: fluorescence-based membrane potential assay (GIRK activation) in AtT20 cells; format: cell-based; design: expressed in transfected cells; host or cells: mouse AtT20 FlpIn cells; settings: for hCB1 Emax ±SEM: normalised to 1 μM CP55,940; for hCB1 maximal response at 10 μM (footnote d): highest concentration tested, curve not fitted
human CB2 [3] = target: T2, human CB2 (Homo sapiens, UniProt P34972); test: competitive radioligand binding assay, displacement of [3H]CP55,940, HEK cell membranes; design: expressed in transfected cells; host or cells: HEK293 cells, P2 membrane preparation; settings: [3H]CP55,940 1 nM
T2 sequence (P34972 whole entry): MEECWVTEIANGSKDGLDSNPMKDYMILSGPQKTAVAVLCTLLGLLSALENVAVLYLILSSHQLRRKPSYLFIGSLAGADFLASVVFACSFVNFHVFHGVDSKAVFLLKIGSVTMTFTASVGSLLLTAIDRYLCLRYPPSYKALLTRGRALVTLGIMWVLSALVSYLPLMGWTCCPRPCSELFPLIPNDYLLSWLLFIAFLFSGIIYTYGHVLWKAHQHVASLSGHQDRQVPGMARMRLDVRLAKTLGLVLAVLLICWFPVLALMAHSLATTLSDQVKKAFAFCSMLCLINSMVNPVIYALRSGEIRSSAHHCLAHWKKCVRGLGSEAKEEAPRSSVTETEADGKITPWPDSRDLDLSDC

human CB2 [4] = target: T2, human CB2; test: fluorescence-based membrane potential assay (GIRK activation) in AtT20 cells; format: cell-based; design: expressed in transfected cells; host or cells: mouse AtT20 FlpIn cells; settings: for hCB2 Emax ±SEM: normalised to 1 μM CP55,940
CB1 = test system: CB1; design: method as in PMID 26134475; settings: cited from earlier work
CB2 = test system: CB2; design: method as in PMID 26134475; settings: cited from earlier work
[5] = hCB1 Ki, value in brackets after pKi
[6] = hCB1 EC50, AtT20-hCB1, value in brackets after pEC50
[7] = hCB2 Ki, value in brackets after pKi
[8] = hCB2 EC50, AtT20-hCB2, value in brackets after pEC50
[9] = hCB1 pKi ±SEM, mean ± SEM of 3 to 6 independent experiments
[10] = hCB2 pKi ±SEM, mean ± SEM of 3 to 6 independent experiments

T1 sequence (P21554 whole entry): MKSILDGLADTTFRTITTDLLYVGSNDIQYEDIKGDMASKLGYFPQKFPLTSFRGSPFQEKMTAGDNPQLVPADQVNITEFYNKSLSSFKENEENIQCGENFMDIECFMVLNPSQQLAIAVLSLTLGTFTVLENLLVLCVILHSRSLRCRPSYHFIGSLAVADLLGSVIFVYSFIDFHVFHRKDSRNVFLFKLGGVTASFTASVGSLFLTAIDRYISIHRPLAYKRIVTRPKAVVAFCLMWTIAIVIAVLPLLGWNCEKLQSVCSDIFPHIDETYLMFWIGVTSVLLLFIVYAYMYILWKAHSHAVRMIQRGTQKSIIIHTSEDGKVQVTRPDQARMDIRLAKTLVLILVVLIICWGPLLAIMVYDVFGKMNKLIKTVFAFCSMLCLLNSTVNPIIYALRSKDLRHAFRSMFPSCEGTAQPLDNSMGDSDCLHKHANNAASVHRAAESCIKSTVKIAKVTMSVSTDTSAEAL

Compound	Ki (human CB1 [1]; [5]) [nM]	melting point [°C]	hCB1 Emax ±SEM (human CB1 [2]; AtT20-hCB1)	EC50 (human CB1 [2]; [6]) [nM]	Ki (human CB2 [3]; [7]) [nM]	hCB2 Emax ±SEM (human CB2 [4]; AtT20-hCB2)	EC50 (human CB2 [4]; [8]) [nM]	EC50 (human CB1 [2]; hCB1 pEC50 ±SEM, AtT20-hCB1, DNC = did not converge, ND = < 50% change in fluorescence at 10 μM) [nM]	Ki (human CB1 [1]; [9]) [nM]	hCB1 maximal response at 10 μM (footnote d) (human CB1 [2]; AtT20-hCB1)	hCB1 maximal response at 10 μM (footnote d) (human CB1 [2]; AtT20-hCB1, listed as APP-4F-BUTICA (27))	hCB1 pEC50 ±SEM (human CB1 [2]; AtT20-hCB1, DNC = did not converge, ND = < 50% change in fluorescence at 10 μM)	Ki (human CB2 [3]; [10]) [nM]	hCB1 maximal response at 10 μM (footnote d) (human CB1 [2]; AtT20-hCB1, listed as APP-4F-BUT7AICA (33))	EC50 (human CB2 [4]; hCB2 pEC50 ±SEM, AtT20-hCB2) [nM]	Emax at CB1 (CB1) [%]	pEC50 at CB1 (CB1)	effect at 30 μM at CB2 (CB2) [%]
COC(=O)[C@@H](NC(=O)c1cn(CCCCC#N)c2ccccc12)C(C)(C)C [Compound 18, methyl (S)-2-(1-(4-cyanobutyl)-1H-indole-3-carboxamido)-3,3-dimethylbutanoate]	6.61	124 to 127	111 ± 3 % CP55,940	2.68	2.04	101 ± 4 % CP55,940	4.04											
COC(=O)[C@H](Cc1ccccc1)NC(=O)c1cn(CCCCC#N)c2ccccc12 [Compound 19, methyl (1-(4-cyanobutyl)-1H-indole-3-carbonyl)-L-phenylalaninate]	85.1	144 to 146	109 ± 3 % CP55,940	35.5	8.71	105 ± 3 % CP55,940	8.44											
COC(=O)[C@H](Cc1ccccc1)NC(=O)c1nn(CCCCC#N)c2ccccc12 [Compound 21, methyl (1-(4-cyanobutyl)-1H-indazole-3-carbonyl)-L-phenylalaninate]	20.9	82.5 to 84.5	115 ± 3 % CP55,940	8.72	3.8	100 ± 2 % CP55,940	3.24											
COC(=O)[C@H](Cc1ccccc1)NC(=O)c1cn(CCCCC#N)c2ncccc12 [Compound 24, methyl (1-(4-cyanobutyl)-1H-pyrrolo[2,3-b]pyridine-3-carbonyl)-L-phenylalaninate]	380	102 to 105	110 ± 5 % CP55,940	189	55	104 ± 2 % CP55,940	14.3	186										
CC(C)[C@H](NC(=O)c1cn(CCCCF)c2ccccc12)C(N)=O [Compound 25, (S)-N-(1-amino-3-methyl-1-oxobutan-2-yl)-1-(4-fluorobutyl)-1H-indole-3-carboxamide]	1000	225 to 227	108 ± 3 % CP55,940	96.5	82	97 ± 2 % CP55,940	23.5											
CC(C)(C)[C@H](NC(=O)c1cn(CCCCF)c2ccccc12)C(N)=O [Compound 26, (S)-N-(1-amino-3,3-dimethyl-1-oxobutan-2-yl)-1-(4-fluorobutyl)-1H-indole-3-carboxamide]		92 to 94	110 ± 4 % CP55,940	40.4	8	105 ± 4 % CP55,940	44.1		34.7									
NC(=O)[C@H](Cc1ccccc1)NC(=O)c1cn(CCCCF)c2ccccc12 [Compound 27, (S)-N-(1-amino-1-oxo-3-phenylpropan-2-yl)-1-(4-fluorobutyl)-1H-indole-3-carboxamide]	3200	102 to 104			170	108 ± 8 % CP55,940	306		3160	submaximal agonist activity	82 ± 4^d % CP55,940	DNC^b	174					
CC(C)[C@H](NC(=O)c1nn(CCCCF)c2ccccc12)C(N)=O [Compound 28, (S)-N-(1-amino-3-methyl-1-oxobutan-2-yl)-1-(4-fluorobutyl)-1H-indazole-3-carboxamide]		188 to 190	107 ± 2 % CP55,940	5.98	8.5	96 ± 1 % CP55,940	4.85		132									
CC(C)(C)[C@H](NC(=O)c1nn(CCCCF)c2ccccc12)C(N)=O [Compound 29, (S)-N-(1-amino-3,3-dimethyl-1-oxobutan-2-yl)-1-(4-fluorobutyl)-1H-indazole-3-carboxamide]	4.07	77 to 79	116± 2 % CP55,940	1.61	0.69	103 ± 2 % CP55,940	5.28											
NC(=O)[C@H](Cc1ccccc1)NC(=O)c1nn(CCCCF)c2ccccc12 [Compound 30, (S)-N-(1-amino-1-oxo-3-phenylpropan-2-yl)-1-(4-fluorobutyl)-1H-indazole-3-carboxamide]	1380	100 to 103	103 ± 3 % CP55,940	504	28.2	101 ± 12 % CP55,940	8.35											
CC(C)(C)[C@H](NC(=O)c1cn(CCCCF)c2ncccc12)C(N)=O [Compound 32, (S)-N-(1-amino-3,3-dimethyl-1-oxobutan-2-yl)-1-(4-fluorobutyl)-1H-pyrrolo[2,3-b]pyridine-3-carboxamide]	1300	95 to 96	112 ± 6 % CP55,940	46	46	108 ± 2 % CP55,940	4.99		1260									
NC(=O)[C@H](Cc1ccccc1)NC(=O)c1cn(CCCCF)c2ncccc12 [Compound 33, (S)-N-(1-amino-1-oxo-3-phenylpropan-2-yl)-1-(4-fluorobutyl)-1H-pyrrolo[2,3-b]pyridine-3-carboxamide]		153 to 154			2400	99 ± 12 % CP55,940	1170		> 10000	submaximal agonist activity				25 ± 14^d % CP55,940				
COC(=O)[C@@H](NC(=O)c1cn(CCCCF)c2ccccc12)C(C)C [Compound 34, methyl (1-(4-fluorobutyl)-1H-indole-3-carbonyl)-L-valinate]	97.7	111 to 114	116 ± 3 % CP55,940	76.9	26.9	102 ± 2 % CP55,940	11.4								11.2			
COC(=O)[C@H](Cc1ccccc1)NC(=O)c1cn(CCCCF)c2ccccc12 [Compound 35, methyl (1-(4-fluorobutyl)-1H-indole-3-carbonyl)-L-phenylalaninate]	270	124 to 126	105 ± 2 % CP55,940	36.6	6.1	100 ± 2 % CP55,940	10.1						6.03					
COC(=O)[C@@H](NC(=O)c1cn(CCCCF)c2ncccc12)C(C)C [Compound 38, methyl (1-(4-fluorobutyl)-1H-pyrrolo[2,3-b]pyridine-3-carbonyl)-L-valinate]	220	81 to 82	115 ± 16 % CP55,940	1390	61	114 ± 6 % CP55,940	49.6		224				60.3					
COC(=O)[C@@H](NC(=O)c1cn(CCCCF)c2ncccc12)C(C)(C)C [Compound 39, methyl (S)-2-(1-(4-fluorobutyl)-1H-pyrrolo[2,3-b]pyridine-3-carboxamido)-3,3-dimethylbutanoate]	107	56 to 58	109 ± 3 % CP55,940	22.2	2.14	95 ± 2 % CP55,940	3.88											
COC(=O)[C@H](Cc1ccccc1)NC(=O)c1cn(CCCCF)c2ncccc12 [Compound 40, methyl (1-(4-fluorobutyl)-1H-pyrrolo[2,3-b]pyridine-3-carbonyl)-L-phenylalaninate]	880	109 to 112	122 ± 10 % CP55,940	637		110 ± 6 % CP55,940	26.9						28.8					
CCCCCc1cc(O)c2c(c1)OC(C)(C)[C@@H]1CCC(C)=C[C@@H]21 [THC, Δ^9-tetrahydrocannabinol]																58	6.76 ± 0.09	32

Reference: publication PMC9558907, “Synthesis and pharmacological evaluation of newly detected synthetic cannabinoid receptor agonists AB-4CN-BUTICA, MMB-4CN-BUTINACA, MDMB-4F-BUTICA, MDMB-4F-BUTINACA and their analogs” (Frontiers in Psychiatry, 2022)
